Patent US20240181022A1, “AMURINS LYSINS, AND LYSIN-ANTIMICROBIAL PEPTIDE (AMP) CONSTRUCTS ACTIVE AGAINST GRAM-NEGATIVE BACTERIA” (priority 2021, published 2024)
In brackets after ≈: the same amount, converted by molar mass. Where a SMILES comes first, the peptide text is derived from it. [ ]: non-standard residue; d: D form.

Columns and labels:
[1] = system: M. smegmatis; assay: MIC against M. smegmatis; format: cell-based, Mycobacterium smegmatis; conditions: M. smegmatis (MC 155); CAAT media
[2] = system: M. abscessus; assay: MIC against MDR M. abscessus isolates; format: cell-based, Mycobacterium abscessus; conditions: 7 days; for MIC: AST media (CAAT)
[3] = system: A. xylosoxidans; format: cell-based, Achromobacter xylosoxidans
Experimental: (§1) MIC values were determined using a modification of the standard broth microdilution reference method defined by the Clinical and Laboratory Standards Institute (CLSI), CLSL. 2015. Methods for Dilution Antimicrobial Susceptibility Tests for Bacteria That Grow Aerobically; Approved Standard-10th Edition. Clinical and Laboratory Standards Institute, Wayne, PA. The modification was based on the replacement of Mueller Hinton Broth with either CAA media (with and without NaCl) or CAA supplemented with 2.5% human serum. MIC is the minimum concentration of peptide sufficient to suppress at least 80% of the bacterial growth compared to control.
(§2) The MICs for were determined as described below using the broth microdilution method for meropenem, GN370, AM1, AM2, and AM3. The results are shown below in Tables 8-12.
The activity of GN370 and AM1 was evaluated against various bacterial isolates, including mucoid and α-hemolytic isolates of P. aeruginosa, MDR isolates, and carbapenem-resistant isolates.

[4] = system: A. dolens; assay: MIC by broth microdilution against A. dolens; format: cell-based, Achromobacter dolens; conditions: A. dolens isolates
Experimental: as §1
(§3) Based on these nine most prevalent strains, direct lytic agents, including GN370, AM1, AM2, and AM3, were evaluated against various isolates from each of the 9 strains. MICs and MBECs (Example 3) were determined, and a sputum inhibition test was conducted, as described below in Example 5.
as §2

[5] = system: B. cenocepacia; assay: MIC by broth microdilution against B. cenocepacia; format: cell-based, Burkholderia cenocepacia; conditions: B. cenocepacia isolates
Experimental: as §1, §3, §2

[6] = system: B. gladioli; assay: MIC by broth microdilution against B. gladioli; format: cell-based, Burkholderia gladioli; conditions: B. gladioli isolates
Experimental: as §1, §3, §2

[7] = system: B. multivorans; assay: MIC by broth microdilution against B. multivorans; format: cell-based, Burkholderia multivorans; conditions: B. multivorans isolates
Experimental: as §1, §3, §2

[8] = system: S. maltophilia; assay: Time-kill assay in cystic fibrosis patient sputum, S. maltophilia; format: cell-based, Stenotrophomonas maltophilia
Excerpt: (§4) Sputum from 5 cystic fibrosis patients was pooled. The resulting mixture was not filtered, as it was very dense and not amenable to sterilization by filtration. Sputum is known to be a complex mixture of DNA, carbohydrates, and lipids ([…], 2016). As used herein, the term “sputum” refers to the mucus present in the respiratory tract of an animal, such as a human. Sputum may increase in thickness due to the irritation or infection, including bacterial infection, and in some instances, may be expelled by the animal while coughing. In certain instances, cystic fibrosis may be characterized by the presence of a thick, sticky mucus or sputum present in the lungs of cystic fibrosis patients. The activity of GN370, AM1, AM2, AM3, and meropenem was determined in the sputum using a time-kill assay format as disclosed in Zhang et al., Antimicrobial peptide therapeutics for cystic fibrosis, Antimicrobial Agents Chemother. 2005; 49(7):2921-2927. […] Untreated controls were included in addition to pretreatment plating (t=0) for a baseline CFU determination. Activity was also determined in the absence of sputum for comparison to activity observed in the presence of sputum.

[9] = system: A. xylosoxidans; assay: Time-kill assay in cystic fibrosis patient sputum, A. xylosoxidans; format: cell-based, Achromobacter xylosoxidans
Excerpt: as §4

[10] = system: Gram-negative bacteria (including P. aeruginosa, E. cloacae, K. pneumoniae, E. coli, and A. baumannii); assay: Inner membrane depolarization (diSC3-5 release); format: cell-based; conditions: equivalent or superior to melittin, LL37, RI-18, and PMBN
Excerpt: The mechanism of action of Chp peptides disclosed herein can also be evaluated by measuring the depolarization of the inner membrane of Gram-negative bacteria, including MDR and XDR strains. The inner membrane comprises […] phospholipids such as cardiolipin, phosphatidylglycerol, and phosphatidylserine. This creates a net negative charge at physiological pH, which is believed to enhance the binding of cationic peptides, including the Chp peptides disclosed herein. Upon permeabilization of the outer membrane, the ability of Chp peptides to induce dissipation of the cytoplasmic membrane electrical potential gradient (Ay) may be examined, for example by following the release of 3,3′-dipropylthiadicarbocyanine (diSC3-5) as a function of time compared to an untreated control. DiSC3-5 is a fluorophore that is a caged cation concentrated within the bacterial inner membrane and under the influence of the bacterial membrane electrical potential gradient. At high concentrations, diSC3-5 self-quenches, leading to the suppression of fluorescence. When the inner membrane deteriorates or becomes leaky for cations, including protons, the Δψ dissipates, which leads to a release of diSC3-5 and a subsequent increase in fluorescence. […] Without wishing to be bound by theory, it is believed that the adsorption and binding of Chp peptides to the inner membrane and insertion into the lipid bilayer results in membrane permeabilization and pore/ion channel formation, which is concomitant with the collapse of the membrane's electrical potential.

[11] = system: A. ruhlandii; format: cell-based, Achromobacter ruhlandii
Experimental: The MBEC (after 2-hour treatments) was determined as described in Jones and Wozniak, PsI Produced by Mucoid Pseudomonas aeruginosa Contributes to the Establishment of Biofilms and Immune Evasion, Am. Soc. Microbiol. 2017, 8(3):e00864-17. Meropenem and tobramycin were included as controls and were both poorly active, with MBEC90 values of >256 μg/mL (data not shown).

## CC[C@H](C)[C@H](NC(=O)[C@@H](CCCNC(=N)N)NC(=O)[C@H](Cc1ccccc1)NC(=O)CNC(=O)CNC(=O)[C@@H](CCCNC(=N)N)NC(=O)[C@H](CCSC)NC(=O)[C@@H]1CCCN1C(=O)[C@@H](CCCNC(=N)N)NC(=O)[C@H](C)NC(=O)[C@@H](CCCNC(=N)N)NC(=O)[C@H](CC(C)C)NC(=O)[C@H](CC(N)=O)NC(=O)[C@@H](CCCNC(=N)N)NC(=O)[C@@H](CCCCN)NC(=O)[C@@H](CCCCN)NC(=O)[C@@H](NC(=O)[C@H](CC(N)=O)NC(=O)[C@@H](NC(=O)[C@H](C)NC(=O)CNC(=O)[C@@H](CCCNC(=N)N)NC(=O)[C@@H](NC(=O)[C@H](Cc1ccccc1)NC(=O)[C@@H](NC(=O)[C@@H](CCCCN)NC(=O)[C@@H](CCCNC(=N)N)NC(=O)[C@H](CO)NC(=O)[C@@H](CCCCN)NC(=O)[C@@H](CCCCN)NC(=O)[C@@H](CCCCN)NC(=O)[C@H](CO)NC(=O)[C@H](CC(C)C)NC(=O)[C@@H](CCCCN)NC(=O)[C@@H](CCCNC(=N)N)NC(=O)[C@@H](CCCNC(=N)N)NC(=O)[C@@H](CCCCN)NC(=O)[C@@H](N)CCSC)[C@@H](C)CC)[C@@H](C)O)C(C)C)C(C)C)C(=O)O [AM3] (H-M[dK][dR][dR][dK]LS[dK][dK][dK]S[dR][dK]IFT[dR]GAVNV[dK][dK][dR]NL[dR]A[dR]PM[dR]GGF[dR]I-OH; N-terminus and C-terminus assumed)
[1]
  MIC: 1 µg/mL (≈ 0.219 µM)
[2]; 5 clinical MDR strains and 1 ATCC strain, CAAT
  activity (MIC) against M. abscessus: highly active
[2]; M. abscessus strain BK51402
  MIC: 1 µg/mL (≈ 0.219 µM)
[2]; M. abscessus strain BK51403 (ATCC 19977)
  MIC: 4 µg/mL (≈ 0.875 µM)
[2]; M. abscessus strain BK51408
  MIC: 4 µg/mL (≈ 0.875 µM)
[2]; M. abscessus strain BK55096
  MIC: 2 µg/mL (≈ 0.438 µM)
[2]; M. abscessus strain BK55691
  MIC: 1 µg/mL (≈ 0.219 µM)
[2]; M. abscessus strain BK58156
  MIC: 1 µg/mL (≈ 0.219 µM)
[3]; A. xylosoxidans isolates
  MIC50: 2 µg/mL (≈ 0.438 µM)
  MIC90: 16 µg/mL (≈ 3.5 µM)
[3]; A. xylosoxidans test organism of the sputum time-kill assay
  MIC: AM3 (MIC = 0.5)
[4]
  MIC50: 2 µg/mL (≈ 0.438 µM)
  MIC90: 8 µg/mL (≈ 1.75 µM)
[4]; in µg/mL
  MIC Range: 0.016-16
[5]
  MIC50: > 128 µg/mL
  MIC90: > 128 µg/mL
[6]
  MIC50: 32 µg/mL (≈ 7 µM)
  MIC90: 128 µg/mL (≈ 28 µM)
[7]
  MIC50: > 128 µg/mL
  MIC90: > 128 µg/mL
[8]; 10% CF sputum vs no sputum
  effect of sputum on antibacterial activity: none of GN370, AM1, AM2, and AM3 was inhibited
[8]; absence of sputum, 1 hr
  Log10 CFU/mL of sputum: 2.3 Log10 CFU/mL of sputum
[8]; absence of sputum, 3 hr
  Log10 CFU/mL of sputum: 2.3 Log10 CFU/mL of sputum
[8]; absence of sputum, 24 hr
  Log10 CFU/mL of sputum: 2.3 Log10 CFU/mL of sputum
[8]; presence of 10% sputum, 1 hr
  Log10 CFU/mL of sputum: 2.3 Log10 CFU/mL of sputum
[8]; presence of 10% sputum, 3 hr
  Log10 CFU/mL of sputum: 2.3 Log10 CFU/mL of sputum
[8]; presence of 10% sputum, 24 hr
  Log10 CFU/mL of sputum: 2.3 Log10 CFU/mL of sputum
[8]; time-kill
  killing by 1 hour, maintained at 24 hours: complete killing
[9]; 10% CF sputum vs no sputum
  effect of sputum on antibacterial activity: none of GN370, AM1, AM2, and AM3 was inhibited
[9]; absence of sputum, 1 hr
  Log10 CFU/mL of sputum: 4.3 Log10 CFU/mL of sputum
[9]; absence of sputum, 3 hr
  Log10 CFU/mL of sputum: 3.3 Log10 CFU/mL of sputum
[9]; absence of sputum, 24 hr
  Log10 CFU/mL of sputum: 2.3 Log10 CFU/mL of sputum
[9]; presence of 10% sputum, 1 hr
  Log10 CFU/mL of sputum: 2.3 Log10 CFU/mL of sputum
[9]; presence of 10% sputum, 3 hr
  Log10 CFU/mL of sputum: 2.3 Log10 CFU/mL of sputum
[9]; presence of 10% sputum, 24 hr
  Log10 CFU/mL of sputum: 2.3 Log10 CFU/mL of sputum
[9]; time-kill
  killing by 1 hour, maintained at 24 hours: complete killing
[10]
  inner membrane depolarization (diSC3-5): dose-dependent increase in membrane depolarization
[11]
  MBEC50: 16 µg/mL
  MBEC90: 16 µg/mL
  MBEC Range: 1 to 32 µg/mL
